Experimental findings from PMC5609913, “Structure based design, synthesis and activity studies of small hybrid molecules as HDAC and G9a dual inhibitors” (Oncotarget, 2017) are described below.

By EC50 is commonly meant the concentration that produces a half-maximal response. Broadly, the inhibition is how much of the control response was suppressed.

In one assay the test system is MDA-MB-231 cells. The experiment in a line: Cell anti-proliferation / toxicity assay (CCK-8), MDA-MB-231. The format is cell-based. The note with it: Homo sapiens, MDA-MB-231; Supplementary Table 4; 72 h, CCK-8; >100 = not reached at 100 μM; read-out: EC50 MDA-MB-231. Here is the method:
Initial tests designed around assessing whether a synergistic effect would be observed in real when a combination of G9a inhibitor and HDAC inhibitor used in conjunction.
Cell anti-proliferation assays were performed to determine the toxicity of these inhibitors. Several cell lines (MDA-MB-231, MCF-7 and A549) were incubated and then treated with varying concentrations of the inhibitors for 72 h, respectively. […] These compounds were further evaluated against the control cell line HEK293 to test their toxicity with a non-cancerous cell line.
A549, MDA-MB-231, MCF-7 and HEK293 cells were seeded at 8000-10000 cells (100 μl) in white 96-well plates and pre-incubate the plate for 24 h under standard cell culture conditions, respectively. And then the cells were exposed to the different inhibitors with various concentrations for 72 h. Finally, 10 μl of CCK-8 kit solution was added to each well and incubated for 3-4 hours under standard cell culture conditions, and the 96 well plates were measured the absorbance at 450 nm using Perkin–Elmer Wallac Victor ^3V 1420 multi label plate reader (Perkin–Elmer, Wellesley, USA). EC50s were calculated using GraphPad Prizm statistical package with sigmoidal variable slope dose response curve fit.

Assay [1] deals with T1, Mouse histone methyltransferase G9a (969-1263) (Mus musculus, UniProt Q9Z148).
T1 construct: The 6His-sumo mG9a (969-1263) protein was purified using the following procedure; 6His-sumo (N, cleaved yes); made in house; host or cells: Escherichia coli BL21 (DE3)
T1 sequence (Q9Z148 969-1263): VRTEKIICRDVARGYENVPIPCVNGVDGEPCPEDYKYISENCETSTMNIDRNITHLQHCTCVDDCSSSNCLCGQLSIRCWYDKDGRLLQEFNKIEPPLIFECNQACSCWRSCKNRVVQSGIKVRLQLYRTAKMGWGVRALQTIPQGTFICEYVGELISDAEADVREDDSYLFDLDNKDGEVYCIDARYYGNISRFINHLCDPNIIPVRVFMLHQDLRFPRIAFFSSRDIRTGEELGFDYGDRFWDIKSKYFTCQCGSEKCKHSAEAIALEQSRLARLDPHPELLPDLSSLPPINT
The experiment in a line: MALDI-TOF methylation study of G9a enzymatic activity (H3 peptide, SAM). The format is biochemical. Particulars: Supplementary Table 1; inhibitor 5 μM, 30 min; average of 3 values. Here is the method:
Figure 3 compounds were synthesized from the commercially available starting material 1. An initial displacement reaction using a primary amine was used to introduce the C4 selective substitution, with the second displacement to introduce the linker at the C2 position following the microwave assisted reaction previously reported. Boc-protected ethylene diamine was treated with compound 2 at 160°C in a microwave for 10 min to yield product 3 with excellent yield. Afterward, the amine 3 was deprotected with TFA/DCM, and the free amine was treated with corresponding monomethyl esters (carbon chain 2-6) in the presence of coupling reagent EDCI and HOBt for about 8 hours to produce mono methyl ester substituted at the C2 position. The ester compounds further treated with hydroxylamine in water to get the corresponding hydroxamic acid derivatives, which were purified using reverse phase flash chromatography to obtain compounds 4-7 and 4a-7a in good yield. Synthesis of compounds in Figure 4 requires the C6 demethoxy core, and this was synthesized according to the reported procedure to yield 10 [45]. […] Compounds with the HDAC pharmacophore at the C4 position (Figure 2B) were synthesized from the starting material 1. […] A parallel synthesis and testing strategy were used in establishing the primary SAR, with the clear rationalization of the structure and activity at each stage we could reduce the synthetic targets. Initially, we evaluated the G9a potential after the introduction of HDAC pharmacophore. A biochemical assay using MALDI-TOF was used to visualize the effects of the synthesized compounds on G9a enzymatic activity, we carried out a biochemical reaction involving target enzyme G9a, methyl donor SAM and substrate H3 peptide at a concentration of 400 nM, 10 μM and 5 μM respectively.
Mouse histone methyltransferase G9a (969-1263) cDNA was amplified from the cDNA of BALB/c mouse thymus, and the fragment was sub-cloned into a vector with a 6His-sumo tag. The mouse G9a (mG9a) was expressed in Escherichia coli BL21 (DE3) by the addition of 1 mM isopropyl-1-thio-D-galactopyranoside (IPTG) and incubated overnight at 16°C.
The in vitro inhibition of G9a by the synthesized compounds were measured by MALDI-TOF mass spectrum (Bruker MALDI TOF/TOF Analyzer). 400 nM purified G9a, 5 μM synthesized histone H3 (1-21) and 10 μM non-radioactive S-adenosyl methionine (Sigma) were added in reaction buffer (50 mM HEPES pH 8.0, 5 μg/ml BSA and 0.1% β-Mercaptoethanol) with or without inhibitors (5 μM). The reaction was incubated at room temperature for 30 min, and stopped by TFA. 1 μl of the sample was mixed with CHCA matrix and m/z peaks were obtained at reflection positive mode. The results of mass spectrum were analyzed using the Bruker flex analysis software, a detailed description of data processing is provided as supplementary information (S3).
[…]
MALDI spectrums were collected using Bruker flex % conversion to product is also C, from this to get the control software and analyzed by flex analysis. After %maximal activity (%MA), C was compared to the % labelling each cluster peaks of H3K9Me0, H3K9Me1 conversion when no inhibitor was used (D). and H3K9Me2 for all of the tested concentrations, area Finally % inhibition was found by subtracting under the cluster (AUC) were extracted by using the same %MA from 100 […]
flex analysis software. % abundance of each peak was Example: % methylation levels and % inhibition calculated by following formula, when used 5 μM compound 14
A = % Abundance of (H3K9Me0) = area of A = 13.09
B = % Abundance of (H3K9Me1) = area of % conversion when no inhibitor was used D = 84.43 H3K9Me1/ (area of H3K9Me0+area of H3K9Me1 + area (average of six measurements) […]

The subject of the next assay is MCF-7 cells. The experiment in a line: Cell anti-proliferation / toxicity assay (CCK-8), MCF-7. The format is cell-based. The note with it: Homo sapiens, MCF7; Supplementary Table 4; 72 h, CCK-8; >100 = not reached at 100 μM; read-out: EC50 MCF-7. On the procedure:
Cell anti-proliferation assays were performed to determine the toxicity of these inhibitors. […] These compounds were further evaluated against the control cell line HEK293 to test their toxicity with a non-cancerous cell line.
And then the cells were exposed to the different inhibitors with various concentrations for 72 h. […] EC50s were calculated using GraphPad Prizm statistical package with sigmoidal variable slope dose response curve fit.

For `COc1ccc2c(NC3CCN(C)CC3)nc(NCCNC(=O)CCCCC(=O)NO)nc2c1` [Compound 15a, N1-hydroxy-N6-(2-((7-methoxy-4-((1-methylpiperidin-4-yl)amino)quinazolin-2-yl)amino)ethyl)adipamide], the EC50 is 77.6 µM in the assay on MDA-MB-231 cells and above 100 µM in the assay with MCF-7 cells. Further, in assay [1], the inhibition at 5 µM was found to be 47.9 ± 12.9%.
The corresponding values for `COc1ccc2c(NC3CCN(Cc4ccccc4)CC3)nc(NCCNC(=O)CCCCC(=O)NO)nc2c1` [Compound 15, N1-(2-((4-((1-benzylpiperidin-4-yl)amino)-7-methoxyquinazolin-2-yl)amino)ethyl)-N6-hydroxyadipamide] are 95.2 µM, above 100 µM and 69.1 ± 24.5%.
